Where two headings read alike, the source gives them in different places.
Assay: TD-6450 phase I clinical study (SAD/MAD): pharmacokinetics
Type: in vivo, human
Details: male, human
Experimental: Primary and secondary outcomes were pre-defined as follows: Safety and tolerability as a primary outcome, pharmacokinetics as a secondary outcome. Safety and tolerability were evaluated using standard measures, including adverse event (AE) monitoring, clinical laboratory tests (hematology, serum chemistry, coagulation, and urinalysis), vital signs, physical examinations, and 12-lead electrocardiograms (ECGs). […]
This study was conducted in two parts, Part A (SAD) and Part B (MAD). For the Part A, the age of enrolled subjects ranged from 20 to 60 years, with a mean age range of 32.1 to 46.2 years. Most subjects were male (73 total subjects) and most were white (55 subjects) or black (22 subjects). For Part B of the study, ages ranged from 23 to 60 years with a similar mean age across treatment groups. Most subjects were male (25 total subjects) and all were either white (18 subjects) or black (12 subjects). For each part of the study, the mean body mass index (BMI) and creatinine clearance were similar across treatment groups. […] Part A: Healthy subjects were sequentially enrolled and randomly assigned to each dose cohort (up to 10 dose-ascending cohorts were planned, including a fed arm in the food effect cohort) to receive either a single dose of TD-6450 or placebo. For each dose cohort, 8 subjects were randomized in a 3:1 ratio (6 subjects received TD-6450 and 2 subjects received placebo). The starting dose of TD-6450 was 0.5 mg with a planned maximum dose of 1000 mg. Upon review of the 500-mg cohort PK data, the decision was made to not escalate to the 1000-mg cohort because of exposure saturation at ≥ 500 mg. The following doses were administered: 0.5 mg, 1.5 mg, 5 mg, 15 mg, 30 mg, 60 mg, 120 mg, 240 mg, and 500 mg. Part B: Healthy subjects were sequentially enrolled in 3 ascending dose cohorts (TD-6450 60 mg, 120 mg, and 240 mg) and randomly assigned to receive either TD-6450 or placebo as once daily doses for 14 days. For each dose cohort, 10 subjects were randomized in a 4:1 ratio (8 subjects received TD-6450 and 2 subjects received placebo). Blinded safety, tolerability, and available PK data after each dose cohort were reviewed by the Safety Data Review Committee (SDRC) before escalation to the next dosing cohort for both part A and B. Subjects of the clinical study were randomly assigned to each cohort. Randomizations codes were assigned to the subjects. All study subjects, study investigators, and the sponsor’s staff involved in the conduct of the study were blinded to treatment assignment. The only personnel who had access to the randomization code before database lock were: The pharmacist or pharmacy staff member who prepared drug or placebo capsules for administration to the subject according to the randomization code and the bioanalytical contract laboratory that analyzed the PK samples (plasma and urine).

CNC(=O)N1C[C@@H](C)N(c2ccc(C(=O)Nc3ccc(-c4ccc(-c5c[nH]c([C@@H]6CCCN6C(=O)[C@@H](NC(=O)OC)C(C)C)n5)cc4)c(OC(F)(F)F)c3)cn2)C[C@@H]1C [TD-6450]
TD-6450 concentration (in vivo, 120 h): 29.30 ng/mL | concentration at 15 min (in vivo, TD-6450 concentration): 0 ng/mL | concentration at 2 h (in vivo, TD-6450 concentration): 116 ng/mL | concentration at 3 h (in vivo, TD-6450 concentration): 156 ng/mL | concentration at 4 h (in vivo, TD-6450 concentration): 159 ng/mL | concentration at 6 h (in vivo, TD-6450 concentration): 165 ng/mL | concentration at 12 h (in vivo, TD-6450 concentration): 108 ng/mL | concentration at 24 h (in vivo, TD-6450 concentration): 85.6 ng/mL | concentration at 48 h (in vivo, TD-6450 concentration): 60 ng/mL | concentration at 72 h (in vivo, TD-6450 concentration): 42.6 ng/mL | concentration at 96 h (in vivo, TD-6450 concentration): 27.1 ng/mL | concentration at 120 h (in vivo, TD-6450 concentration): 19.3 ng/mL | concentration at 144 h (in vivo, TD-6450 concentration): 15.1 ng/mL | concentration at 168 h (in vivo, TD-6450 concentration): 12.2 ng/mL | concentration at 312 h (in vivo, TD-6450 concentration): 2.12 ng/mL | concentration at 1 h (plasma, oral, 0.5 mg, Male subjects, SAD arm NCT02022306, Dose 0.50, 1 Hour, read-out: Concentration): 0 ng/mL | concentration at 2 h (plasma, oral, 0.5 mg, Male subjects, SAD arm NCT02022306, Dose 0.50, 2 Hours, read-out: Concentration): 0 ng/mL | concentration at 3 h (plasma, oral, 0.5 mg, Male subjects, SAD arm NCT02022306, Dose 0.50, 3 Hours, read-out: Concentration): 0 ng/mL | concentration at 15 min (plasma, oral, 0.5 mg, Male subjects, SAD arm NCT02022306, Dose 0.50, 15 Minutes, read-out: Concentration): 0 ng/mL | concentration at 24 h (plasma, oral, 0.5 mg, Male subjects, SAD arm NCT02022306, Dose 0.50, 24 Hours, read-out: Concentration): 0 ng/mL | concentration at 30 min (plasma, oral, 0.5 mg, Male subjects, SAD arm NCT02022306, Dose 0.50, 30 Minutes, read-out: Concentration): 0 ng/mL | concentration at 72 h (plasma, oral, 0.5 mg, Male subjects, SAD arm NCT02022306, Dose 0.50, 72 Hours, read-out: Concentration): 0 ng/mL | concentration at 96 h (plasma, oral, 0.5 mg, Male subjects, SAD arm NCT02022306, Dose 0.50, 96 Hours, read-out: Concentration): 0 ng/mL | concentration at 120 h (plasma, oral, 0.5 mg, Male subjects, SAD arm NCT02022306, Dose 0.50, 120 Hours, read-out: Concentration): 0 ng/mL | concentration at 144 h (plasma, oral, 0.5 mg, Male subjects, SAD arm NCT02022306, Dose 0.50, 144 Hours, read-out: Concentration): 0 ng/mL | concentration at 168 h (plasma, oral, 0.5 mg, Male subjects, SAD arm NCT02022306, Dose 0.50, 168 Hours, read-out: Concentration): 0 ng/mL | concentration at 15 min (plasma, oral, 1.5 mg, Male subjects, SAD arm NCT02022306, Dose 1.50, 15 Minutes, read-out: Concentration): 0 ng/mL | concentration at 30 min (plasma, oral, 1.5 mg, Male subjects, SAD arm NCT02022306, Dose 1.50, 30 Minutes, read-out: Concentration): 0 ng/mL | concentration at 15 min (plasma, oral, 5 mg, Male subjects, SAD arm NCT02022306, Dose 5.00, 15 Minutes, read-out: Concentration): 0 ng/mL | concentration at 15 min (plasma, oral, 15 mg, Male subjects, SAD arm NCT02022306, Dose 15.00, 15 Minutes, read-out: Concentration): 0 ng/mL | concentration at 1 h (plasma, oral, 30 mg, Male subjects, SAD arm NCT02022306, Dose 30.00, 1 Hour, read-out: Concentration (ng/ml)): 0.68 ng/mL | concentration at 2 h (plasma, oral, 30 mg, Male subjects, SAD arm NCT02022306, Dose 30.00, 2 Hours, read-out: Concentration): 9.36 ng/mL | concentration at 3 h (plasma, oral, 30 mg, Male subjects, SAD arm NCT02022306, Dose 30.00, 3 Hours, read-out: Concentration): 15.6 ng/mL | concentration at 3 h (plasma, oral, 30 mg, Male subjects, SAD arm NCT02022306, Dose 30.00, 3 Hours, read-out: Concentration (ng/ml)): 20.9 ng/mL | concentration at 4 h (plasma, oral, 30 mg, Male subjects, SAD arm NCT02022306, Dose 30.00, 4 Hours, read-out: Concentration): 18.8 ng/mL | concentration at 4 h (plasma, oral, 30 mg, Male subjects, SAD arm NCT02022306, Dose 30.00, 4 Hours, read-out: Concentration (ng/ml)): 17.9 ng/mL | concentration at 6 h (plasma, oral, 30 mg, Male subjects, SAD arm NCT02022306, Dose 30.00, 6 Hours, read-out: Concentration): 22.6 ng/mL | concentration at 8 h (plasma, oral, 30 mg, Male subjects, SAD arm NCT02022306, Dose 30.00, 8 Hours, read-out: Concentration): 26.3 ng/mL | concentration at 12 h (plasma, oral, 30 mg, Male subjects, SAD arm NCT02022306, Dose 30.00, 12 Hours, read-out: Concentration): 18.7 ng/mL | concentration at 15 min (plasma, oral, 30 mg, Male subjects, SAD arm NCT02022306, Dose 30.00, 15 Minutes, read-out: Concentration): 0 ng/mL | concentration at 15 min (plasma, oral, 30 mg, Male subjects, SAD arm NCT02022306, Dose 30.00, 15 Minutes, read-out: Concentration (ng/ml)): 0 ng/mL | concentration at 24 h (plasma, oral, 30 mg, Male subjects, SAD arm NCT02022306, Dose 30.00, 24 Hours, read-out: Concentration): 14.3 ng/mL | concentration at 30 min (plasma, oral, 30 mg, Male subjects, SAD arm NCT02022306, Dose 30.00, 30 Minutes, read-out: Concentration (ng/ml)): 0 ng/mL | concentration at 48 h (plasma, oral, 30 mg, Male subjects, SAD arm NCT02022306, Dose 30.00, 48 Hours, read-out: Concentration): 9.12 ng/mL | concentration at 72 h (plasma, oral, 30 mg, Male subjects, SAD arm NCT02022306, Dose 30.00, 72 Hours, read-out: Concentration): 6.82 ng/mL | concentration at 72 h (plasma, oral, 30 mg, Male subjects, SAD arm NCT02022306, Dose 30.00, 72 Hours, read-out: Concentration (ng/ml)): 5.73 ng/mL | concentration at 96 h (plasma, oral, 30 mg, Male subjects, SAD arm NCT02022306, Dose 30.00, 96 Hours, read-out: Concentration): 5.25 ng/mL | concentration at 96 h (plasma, oral, 30 mg, Male subjects, SAD arm NCT02022306, Dose 30.00, 96 Hours, read-out: Concentration (ng/ml)): 4.83 ng/mL | concentration at 120 h (plasma, oral, 30 mg, Male subjects, SAD arm NCT02022306, Dose 30.00, 120 Hours, read-out: Concentration): 4.26 ng/mL | concentration at 120 h (plasma, oral, 30 mg, Male subjects, SAD arm NCT02022306, Dose 30.00, 120 Hours, read-out: Concentration (ng/ml)): 3.52 ng/mL | concentration at 144 h (plasma, oral, 30 mg, Male subjects, SAD arm NCT02022306, Dose 30.00, 144 Hours, read-out: Concentration): 3.26 ng/mL | concentration at 144 h (plasma, oral, 30 mg, Male subjects, SAD arm NCT02022306, Dose 30.00, 144 Hours, read-out: Concentration (ng/ml)): 3.18 ng/mL | concentration at 168 h (plasma, oral, 30 mg, Male subjects, SAD arm NCT02022306, Dose 30.00, 168 Hours, read-out: Concentration): 2.33 ng/mL | concentration at 168 h (plasma, oral, 30 mg, Male subjects, SAD arm NCT02022306, Dose 30.00, 168 Hours, read-out: Concentration (ng/ml)): 2.29 ng/mL | concentration at 8 h (plasma, oral, 60 mg, Male subjects, SAD arm NCT02022306, Dose 60.00, 8 Hours, read-out: Concentration (ng/ml)): 110 ng/mL | concentration at 15 min (plasma, oral, 60 mg, Male subjects, SAD arm NCT02022306, Dose 60.00, 15 Minutes, read-out: Concentration (ng/ml)): 0 ng/mL | concentration at 15 min (plasma, oral, 120 mg, Male subjects, SAD arm NCT02022306, Dose 120.00, 15 Minutes, read-out: Concentration (ng/ml)): 0 ng/mL | concentration at 15 min (plasma, oral, 240 mg, Male subjects, SAD arm NCT02022306, Dose 240.00, 15 Minutes, read-out: Concentration (ng/ml)): 0 ng/mL | concentration at 15 min (plasma, oral, 500 mg, Male subjects, SAD arm NCT02022306, Dose 500.00, 15 Minutes, read-out: Concentration (ng/ml)): 0 ng/mL | concentration at 30 min (plasma, oral, 500 mg, Male subjects, SAD arm NCT02022306, Dose 500.00, 30 Minutes, read-out: Concentration (ng/ml)): 2.85 ng/mL

— publication PMC10082216 (Nature Communications, 2023)
